≈ marks a conversion by molar mass, not a printed value.
What was measured:
Amblyomma americanum = assay: Dose characterization of spot-on formulations against Amblyomma americanum ticks in dogs (Example 4); type: in vivo
Procedure: The efficacy of a spot-on composition of the invention comprising an isoxazoline compound (Cmpd. A) in a carrier vehicle comprising either DES alone or DES+lauryl lactate (LL), against ticks (Amblyomma americanum), in dogs was studied. The compositions contained 3.0%, 4.5%, or 6.0% Cmpd. A in either DES alone or DES+lauryl lactate, which delivered doses of […], respectively, of Cmpd. A to dogs infested with A. Americanum ticks.
Seven Treatment Groups were evaluated. Treatment Group 1 was administered a placebo formulation and served as a control. Treatment Groups 2, 3 and 4 were administered a topical formulation comprising 6.0% (w/v), 4.5% (w/v) and 3.0% (w/v) of Cmpd. A in DES, respectively, corresponding to doses of 4.0 mg/kg, 3.0 mg/kg and 2.0 mg/kg, respectively. Treatment Groups 5, 6 and 7 were administered a topical formulation comprising 6.0% (w/v), 4.5% (w/v) and 3.0% (w/v) of Cmpd. A in DES+9% lauryl lactate, respectively, corresponding to doses of […], 3.0 mg/kg and 2.0 mg/kg body weight Cmpd. A, respectively.
All dogs were treated once topically on Day 0 by parting the hair and applying the solution from a syringe directly onto the skin in a single spot on the midline of the neck between the base of the skull and the shoulder blades.
All dogs were infested with approximately 50 A. americanum on Days −1, 7, 14, 21, 28, 35 and 42. Ticks were counted upon removal on Days 2, 9, 16, 23, 30, 37 and 44. The % reduction of ticks for each Group is presented Table 5 below.

Ctenocephalides felis = assay: Spot-on efficacy at 1 mg/kg against Ctenocephalides felis fleas in cats protected from grooming (Example 8); type: in vivo; details: cats with protective neck collar
Procedure: In another study, the efficacy of four spot-on formulations comprising Cmpd. A dosed at 1 mg/kg body weight in different carrier vehicles against fleas in cats was studied. Five cats each were allocated to five Treatment Groups: Group 1—Untreated; Group 2—0.833% (w/v) Cmpd. A in dimethylsulfoxide (DMSO); Group 3—0.833% (w/v) Cmpd. A in DMI; Group 4—0.833% (w/v) Cmpd. A in Transcutol®; and Group 5—0.833% (w/v) Cmpd. A in DES. […] the corresponding spot-on formulation by application of the formulation directly on the skin in the midline of the neck, between the base of the skull and the shoulder blades in a single spot using a 1 mL syringe. Infestations with approximately 100 C. felis were conducted weekly on Days 7, 14, 21, 28 and 35. […]

D. variabilis = assay: Efficacious plasma concentration (EC90) against D. variabilis ticks in dogs (Example 13); type: in vivo, Dermacentor variabilis; details: for EC90 (concentration required to achieve 90% efficacy): plasma concentration
Procedure: Blood samples were collected from all dogs in the study on Days −6, 0 (at 4 h and 12 h), 1, 2, 9, 16, 23, 30, 36, 44, 51, 58, 64, 72, 79 and 86. Plasma samples were analyzed for the concentration of Compound A using an LC/MS/MS analytical method that was GLP validated for the purpose.
Plasma concentrations of Compound A from dogs in the studies of Examples 1 and 4 were determined according to the description in Example 1, and the plasma concentration versus % efficacy against A. americanum and D. variabilis were fit to a Sigmoidal Emax model. […] Since Compound A is systemically active, the lower concentration of the compound in the plasma required to achieve 90% efficacy from the topical compositions of the invention is surprising and unexpected.

## O=C(CNC(=O)c1ccc(C2=NOC(c3cc(Cl)cc(C(F)(F)F)c3)(C(F)(F)F)C2)c2ccccc12)NCC(F)(F)F (stereo not drawn) [Compound A, 4-[5-[3-chloro-5-(trifluoromethyl)phenyl]-4,5-dihydro-5-(trifluoromethyl)-3-isoxazolyl]-N-[2-oxo-2-[(2,2,2-trifluoroethyl)amino]ethyl]-1-naphthalanecarboxamide]
Amblyomma americanum; Group 2: 6.0% in DES, 4.0 mg/kg, Day 2
  % Reduction Ticks: 97.4%
Amblyomma americanum; Group 2: 6.0% in DES, 4.0 mg/kg, Day 9
  % Reduction Ticks: 100.0%
Amblyomma americanum; Group 2: 6.0% in DES, 4.0 mg/kg, Day 16
  % Reduction Ticks: 100.0%
Amblyomma americanum; Group 2: 6.0% in DES, 4.0 mg/kg, Day 23
  % Reduction Ticks: 100.0%
Amblyomma americanum; Group 2: 6.0% in DES, 4.0 mg/kg, Day 30
  % Reduction Ticks: 82.5%
Amblyomma americanum; Group 2: 6.0% in DES, 4.0 mg/kg, Day 37
  % Reduction Ticks: 97.9%
Amblyomma americanum; Group 2: 6.0% in DES, 4.0 mg/kg, Day 44
  % Reduction Ticks: 84.2%
Amblyomma americanum; Group 3: 4.5% in DES, 3.0 mg/kg, Day 2
  % Reduction Ticks: 90.0%
Amblyomma americanum; Group 3: 4.5% in DES, 3.0 mg/kg, Day 9
  % Reduction Ticks: 100.0%
Amblyomma americanum; Group 3: 4.5% in DES, 3.0 mg/kg, Day 16
  % Reduction Ticks: 97.6%
Amblyomma americanum; Group 3: 4.5% in DES, 3.0 mg/kg, Day 23
  % Reduction Ticks: 82.0%
Amblyomma americanum; Group 3: 4.5% in DES, 3.0 mg/kg, Day 30
  % Reduction Ticks: 70.0%
Amblyomma americanum; Group 3: 4.5% in DES, 3.0 mg/kg, Day 37
  % Reduction Ticks: 80.4%
Amblyomma americanum; Group 3: 4.5% in DES, 3.0 mg/kg, Day 44
  % Reduction Ticks: 56.0%
Amblyomma americanum; Group 4: 3.0% in DES, 2.0 mg/kg, Day 2
  % Reduction Ticks: 95.4%
Amblyomma americanum; Group 4: 3.0% in DES, 2.0 mg/kg, Day 9
  % Reduction Ticks: 100.0%
Amblyomma americanum; Group 4: 3.0% in DES, 2.0 mg/kg, Day 16
  % Reduction Ticks: 100.0%
Amblyomma americanum; Group 4: 3.0% in DES, 2.0 mg/kg, Day 23
  % Reduction Ticks: 79.5%
Amblyomma americanum; Group 4: 3.0% in DES, 2.0 mg/kg, Day 30
  % Reduction Ticks: 90.3%
Amblyomma americanum; Group 4: 3.0% in DES, 2.0 mg/kg, Day 37
  % Reduction Ticks: 57.1%
Amblyomma americanum; Group 4: 3.0% in DES, 2.0 mg/kg, Day 44
  % Reduction Ticks: 38.8%
Amblyomma americanum; Group 5: 6.0% in DES+9% lauryl lactate, 4.0 mg/kg, Day 2
  % Reduction Ticks: 100.0%
Amblyomma americanum; Group 5: 6.0% in DES+9% lauryl lactate, 4.0 mg/kg, Day 9
  % Reduction Ticks: 100.0%
Amblyomma americanum; Group 5: 6.0% in DES+9% lauryl lactate, 4.0 mg/kg, Day 16
  % Reduction Ticks: 100.0%
Amblyomma americanum; Group 5: 6.0% in DES+9% lauryl lactate, 4.0 mg/kg, Day 23
  % Reduction Ticks: 94.3%
Amblyomma americanum; Group 5: 6.0% in DES+9% lauryl lactate, 4.0 mg/kg, Day 30
  % Reduction Ticks: 100.0%
Amblyomma americanum; Group 5: 6.0% in DES+9% lauryl lactate, 4.0 mg/kg, Day 37
  % Reduction Ticks: 89.0%
Amblyomma americanum; Group 5: 6.0% in DES+9% lauryl lactate, 4.0 mg/kg, Day 44
  % Reduction Ticks: 84.8%
Amblyomma americanum; Group 6: 4.5% in DES+9% lauryl lactate, 3.0 mg/kg, Day 2
  % Reduction Ticks: 98.4%
Amblyomma americanum; Group 6: 4.5% in DES+9% lauryl lactate, 3.0 mg/kg, Day 9
  % Reduction Ticks: 100.0%
Amblyomma americanum; Group 6: 4.5% in DES+9% lauryl lactate, 3.0 mg/kg, Day 16
  % Reduction Ticks: 100.0%
Amblyomma americanum; Group 6: 4.5% in DES+9% lauryl lactate, 3.0 mg/kg, Day 23
  % Reduction Ticks: 93.1%
Amblyomma americanum; Group 6: 4.5% in DES+9% lauryl lactate, 3.0 mg/kg, Day 30
  % Reduction Ticks: 92.1%
Amblyomma americanum; Group 6: 4.5% in DES+9% lauryl lactate, 3.0 mg/kg, Day 37
  % Reduction Ticks: 89.0%
Amblyomma americanum; Group 6: 4.5% in DES+9% lauryl lactate, 3.0 mg/kg, Day 44
  % Reduction Ticks: 53.6%
Amblyomma americanum; Group 7: 3.0% in DES+9% lauryl lactate, 2.0 mg/kg, Day 2
  % Reduction Ticks: 98.4%
Amblyomma americanum; Group 7: 3.0% in DES+9% lauryl lactate, 2.0 mg/kg, Day 9
  % Reduction Ticks: 100.0%
Amblyomma americanum; Group 7: 3.0% in DES+9% lauryl lactate, 2.0 mg/kg, Day 16
  % Reduction Ticks: 100.0%
Amblyomma americanum; Group 7: 3.0% in DES+9% lauryl lactate, 2.0 mg/kg, Day 23
  % Reduction Ticks: 80.6%
Amblyomma americanum; Group 7: 3.0% in DES+9% lauryl lactate, 2.0 mg/kg, Day 30
  % Reduction Ticks: 88.9%
Amblyomma americanum; Group 7: 3.0% in DES+9% lauryl lactate, 2.0 mg/kg, Day 37
  % Reduction Ticks: 74.6%
Amblyomma americanum; Group 7: 3.0% in DES+9% lauryl lactate, 2.0 mg/kg, Day 44
  % Reduction Ticks: 42.4%
Amblyomma americanum; Treatment Group 2 (4.0 mg/kg in DES alone), through Week 3
  efficacy against ticks: at least 90%
Amblyomma americanum; Treatment Groups 5 and 6 (4.0 and 3.0 mg/kg in DES+LL), through five weeks
  efficacy against ticks: at least 90%
Ctenocephalides felis; Group 2: 0.833% in DMSO, Day 1
  % Reduction: 43.16%
Ctenocephalides felis; Group 2: 0.833% in DMSO, Day 2
  % Reduction: 60.54%
Ctenocephalides felis; Group 2: 0.833% in DMSO, Day 8
  % Reduction: 98.48%
Ctenocephalides felis; Group 2: 0.833% in DMSO, Day 15
  % Reduction: 95.91%
Ctenocephalides felis; Group 2: 0.833% in DMSO, Day 22
  % Reduction: 97.90%
Ctenocephalides felis; Group 2: 0.833% in DMSO, Day 29
  % Reduction: 90.10%
Ctenocephalides felis; Group 2: 0.833% in DMSO, Day 36
  % Reduction: 74.49%
Ctenocephalides felis; Group 3: 0.833% in DMI, Day 1
  % Reduction: 37.90%
Ctenocephalides felis; Group 3: 0.833% in DMI, Day 2
  % Reduction: 88.97%
Ctenocephalides felis; Group 3: 0.833% in DMI, Day 8
  % Reduction: 99.62%
Ctenocephalides felis; Group 3: 0.833% in DMI, Day 15
  % Reduction: 99.32%
Ctenocephalides felis; Group 3: 0.833% in DMI, Day 22
  % Reduction: 98.80%
Ctenocephalides felis; Group 3: 0.833% in DMI, Day 29
  % Reduction: 92.66%
Ctenocephalides felis; Group 3: 0.833% in DMI, Day 36
  % Reduction: 79.54%
Ctenocephalides felis; Group 4: 0.833% in Transcutol, Day 1
  % Reduction: 76.32%
Ctenocephalides felis; Group 4: 0.833% in Transcutol, Day 2
  % Reduction: 83.12%
Ctenocephalides felis; Group 4: 0.833% in Transcutol, Day 8
  % Reduction: 98.95%
Ctenocephalides felis; Group 4: 0.833% in Transcutol, Day 15
  % Reduction: 99.01%
Ctenocephalides felis; Group 4: 0.833% in Transcutol, Day 22
  % Reduction: 96.19%
Ctenocephalides felis; Group 4: 0.833% in Transcutol, Day 29
  % Reduction: 95.41%
Ctenocephalides felis; Group 4: 0.833% in Transcutol, Day 36
  % Reduction: 86.61%
Ctenocephalides felis; Group 5: 0.833% in DES, Day 1
  % Reduction: 54.40%
Ctenocephalides felis; Group 5: 0.833% in DES, Day 2
  % Reduction: 82.77%
Ctenocephalides felis; Group 5: 0.833% in DES, Day 8
  % Reduction: 98.82%
Ctenocephalides felis; Group 5: 0.833% in DES, Day 15
  % Reduction: 99.26%
Ctenocephalides felis; Group 5: 0.833% in DES, Day 22
  % Reduction: 99.82%
Ctenocephalides felis; Group 5: 0.833% in DES, Day 29
  % Reduction: 92.43%
Ctenocephalides felis; Group 5: 0.833% in DES, Day 36
  % Reduction: 88.11%
D. variabilis; dogs, topical vs oral
  concentration required to achieve 90% efficacy, lower than the concentration required from oral administration: ~36%
D. variabilis; dogs, topical compositions, Sigmoidal Emax model
  EC90 (concentration required to achieve 90% efficacy): 0.07 µg/mL (≈ 0.112 µM)
D. variabilis; oral dosage form
  EC90 (concentration required to achieve 90% efficacy): 0.11 µg/mL (≈ 0.176 µM)
